Test results: patent US9133207B2, “Tetrandrine derivatives with substituted 5-carbon, preparation method and use thereof” (Hangzhou Bensheng Pharmaceutical Co., Ltd., priority 2011, dated 2015)
≈ marks a conversion by molar mass, not a printed value.

Assays:
[1] = test system: NB4 (acute promyelocytic leukemia, AML); test: Leukemia cell growth inhibition, MTT, 72 h (Example 5); assay type: cell-based, human; details: Homo sapiens; 72 h, MTT
Outline: (§1)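 Seed 6000 leukemia cells per well in 1640 medium containing 10% FBS. Add test compounds at different concentrations, mix, incubate 72 hours at 37° C in 5% CO2. Determine viable cells by MTT.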

[2] = test system: K562/adr (drug-resistant, chronic myeloid leukemia, CML); test: as above; assay type: cell-based, human; details: Homo sapiens, K562/Adr; 72 h, MTT
Outline: as §1

[3] = test system: Jurkat (acute lymphoblastic leukemia, ALL); test: as above; assay type: cell-based, human
Outline: as §1

[4] = test system: Kasumi-1 (acute myeloid leukemia M2 type, AML-M2); test: as above; assay type: cell-based, human; details: Homo sapiens, Kasumi 1
Outline: as §1

[5] = test system: H9 (acute lymphoblastic leukemia, ALL); test: as above; assay type: cell-based, human; details: Homo sapiens; 72 h, MTT
Outline: as §1

[6] = test system: RPMI8226 (multiple myeloma); test: Multiple myeloma cell growth inhibition, MTT, 72 h (Example 6); assay type: cell-based, human; details: Homo sapiens, RPMI-8226; 72 h, MTT, RPMI8226
Outline: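 Viability was read by MTT after 72 h of compound exposure at 37 °C, 5% CO2. Each well held 6000 RPMI8226 cells in 1640 medium containing 10% fetal bovine serum, with derivatives added at various concentrations.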

[7] = mouse, in vivo, 50 mg/kg
Description: (§3) Animal: BALB/c nude mice, 8 weeks, female, purchased from Shanghai Laboratory Animal Center of Chinese Academy of Sciences, China.
(§4) The mice are administered from the third day after the inoculation. Each mouse is intragastrically administered in 0.4 ml each time and 3 times a day, at 8:00, 14:00 and 20:00, with 6-hour intervals. The administrations are successive for 10 days. The day before administration is deemed as Day 0 and the body weight and tumor size are determined every 5 days to produce a dynamic plot on body weight and tumor growth. On Day 29, the mice are dissected and the tumors are taken out and weighted. The tumor inhibition rate (%) is calculated after the effect of the medicament based on the tumor inhibition rate of the control group being zero.
(§5) The values determined are presented as mean±standard error (M±SD).

[8] = test system: human non-small cell lung cancer cell line A549 transplanted tumor; test: Experiment 8-2: transplanted tumor of human lung cancer in nude mice; assay type: in vivo, BALB/c nude mice
Text: Cell lines: human non-small cell lung cancer cell line A549, from China Center for Type Culture Collection (CCTCC);
The administrations are successive for 10 days.

[9] = test system: Hela (human cervical cancer cell); test: Solid tumor cell growth inhibition, MTT, 72 h (Example 7); assay type: cell-based; details: Homo sapiens; 72 h, MTT, Hela
Outline: (§2)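 Each line is plated at 4000 cells per well in high-glucose DMEM supplemented with 10% FBS. After 24 h settling, derivatives at several concentrations are mixed in and cultured 72 h; MTT then gives viable cells, with untreated wells set to 100%.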

[10] = test system: SK-OV-3 (ovarian cancer cell); test: as above; assay type: cell-based; details: Homo sapiens
Outline: as §2

[11] = test system: MGC 803 (human gastric cancer cell); test: as above; assay type: cell-based; details: Homo sapiens
Outline: as §2

[12] = test system: U87 MG (malignant glioma cell); test: as above; assay type: cell-based; details: Homo sapiens, U-87 MG
Outline: as §2

[13] = test system: CNE (nasopharyngeal carcinoma cell); test: as above; assay type: cell-based; details: Homo sapiens
Outline: as §2

[14] = test system: RKO (human colon adenocarcinoma cell); test: as above; assay type: cell-based; details: Homo sapiens; 72 h, MTT, RKO
Outline: as §2

[15] = test system: Huh7 (human liver cancer cell); test: as above; assay type: cell-based
Outline: as §2

[16] = test system: Becap37 (human breast cancer cell); test: as above; assay type: cell-based
Outline: as §2

A549 (human lung cancer) = test: as above; assay type: cell-based; details: Homo sapiens; 72 h, MTT, A549
Outline: as §2

[17] = Experiment 8-2: body weight of nude mice, preliminary toxicity
Description: as §3, §4, §5

[18] = test system: CaES-17 (esophageal cancer cell); test: Solid tumor cell growth inhibition, MTT, 72 h (Example 7); assay type: cell-based, human; details: Homo sapiens, CaEs17; 72 h, MTT, CAES-17
Outline: as §2

[19] = test system: PANC-1 (pancreatic cancer); test: as above; assay type: cell-based, human
Outline: as §2

PC-3 (prostate cancer) = test: as above; assay type: cell-based, human; details: Homo sapiens; 72 h, MTT, PC-3
Outline: as §2

[20] = test system: Hep-2 (laryngeal carcinoma); test: as above; assay type: cell-based, human; details: Homo sapiens; 72 h, MTT, Hep 2
Outline: as §2

MG63 (osteosarcoma) = test: as above; assay type: cell-based, human; details: Homo sapiens; 72 h, MTT, MG-63
Outline: as §2

[21] = Homo sapiens, Jurkat, 72 h, MTT
[22] = Homo sapiens, 72 h, MTT, Becap-37
[23] = Homo sapiens, 72 h, MTT, PANC-1

`COc1ccc2cc1Oc1ccc(cc1)C[C@H]1c3cc(c(OC)cc3CCN1C)Oc1c(OC)c(OC)c(CN3CCC(N(C)C)CC3)c3c1[C@H](C2)N(C)CC3` [BS-TE-354] gave an IC50 [1] of 0.4 µg/mL (≈ 0.524 µM), an IC90 [1] of 1 µg/mL (≈ 1.31 µM) and an IC50 [2] of 0.99 µg/mL (≈ 1.3 µM). The IC90 [2] was 2.65 µg/mL (≈ 3.47 µM), the IC50 [3, 21] was 0.5 µg/mL (≈ 0.655 µM) and the IC90 [3, 21] was 2.23 µg/mL (≈ 2.92 µM). For the same molecule, the “anti-Jurkat activity increase over tetrandrine” value ([3]; compared with tetrandrine) was about 4 fold, the IC50 [4] was 0.37 µg/mL (≈ 0.485 µM) and the IC90 [4] was 1.97 µg/mL (≈ 2.58 µM). The IC50 [5] was 0.78 µg/mL (≈ 1.02 µM), the IC90 [5] was 1.25 µg/mL (≈ 1.64 µM) and the IC50 [6] was 0.08 µg/mL (≈ 0.105 µM). For the same molecule, the IC90 [6] was 1.58 µg/mL (≈ 2.07 µM), the “toxic and side effect under such a dosage” value [7] was “has caused some toxic and side effect” and the “effect on transplanted tumor of human lung cancer in nude mice” value ([8]; 50 mg/kg) was “exhibits inhibiting effect”. The “Mass of tumor” value ([8]; 50 mg/kg intragastric, 3 times a day, 10 days, Day 29, M±SD) was 423.25 ± 364.28 mg, the “Tumor Inhibition rate (%)” value ([8]; 50 mg/kg intragastric, 3 times a day, 10 days, Day 29, control = zero) was 43.60% and the IC50 [9] was 1.07 µg/mL (≈ 1.4 µM). The IC90 [9] was 2.81 µg/mL (≈ 3.68 µM), the IC50 [10] was 1.4 µg/mL (≈ 1.83 µM) and the IC90 [10] was over 16 µg/mL. For the same molecule, the IC50 [11] was 0.83 µg/mL (≈ 1.09 µM), the IC90 [11] was 3.93 µg/mL (≈ 5.15 µM) and the IC50 [12] was 0.31 µg/mL (≈ 0.406 µM). It also gave an IC90 [12] of 1.44 µg/mL (≈ 1.89 µM), an IC50 [13] of 0.54 µg/mL (≈ 0.708 µM) and an IC90 [13] of 1.62 µg/mL (≈ 2.12 µM). For the same molecule, the IC50 [14] was 0.25 µg/mL (≈ 0.328 µM), the IC90 [14] was 0.51 µg/mL (≈ 0.668 µM) and the IC50 ([15]; Homo sapiens, 72 h, MTT, Huh-7) was 0.65 µg/mL (≈ 0.852 µM). For the same molecule, the IC90 ([15]; Homo sapiens, 72 h, MTT, Huh-7) was 0.98 µg/mL (≈ 1.28 µM), the “anti-Huh7 activity increase over tetrandrine” value ([15]; compared with tetrandrine) was about 8 fold and the IC50 [16, 22] was 0.4 µg/mL (≈ 0.524 µM). The IC90 [16, 22] was 2.4 µg/mL (≈ 3.15 µM), the “anti-Becap37 activity increase over tetrandrine” value ([16]; compared with tetrandrine) was 17 fold and the IC50 (A549 (human lung cancer)) was 1.8 µg/mL (≈ 2.36 µM). For the same molecule, the IC90 (A549 (human lung cancer)) was 9.8 µg/mL (≈ 12.8 µM), the “weight loss as compared with the weight in the control group (FIG. 6)” value ([17]; 50 mg/kg) was “relatively remarkable” and the “Weight (g) Final” value ([17]; 50 mg/kg intragastric, 3 times a day, 10 days, final body weight, M±SD) was 16.08 ± 1.00 g. For the same molecule, the “Weight (g) Initial” value ([17]; nude mice body weight before administration, M±SD) was 22.25 ± 0.29 g, the IC50 [18] was 0.91 µg/mL (≈ 1.19 µM) and the IC90 [18] was 4.89 µg/mL (≈ 6.41 µM). The IC50 [19, 23] was 1.25 µg/mL (≈ 1.64 µM), the IC90 [19, 23] was 6.31 µg/mL (≈ 8.27 µM) and the “anti-PANC-1 activity increase over tetrandrine” value ([19]; compared with tetrandrine) was 2 fold. For the same molecule, the IC50 (PC-3 (prostate cancer)) was 1.9 µg/mL (≈ 2.49 µM), the IC90 (PC-3 (prostate cancer)) was 2.5 µg/mL (≈ 3.28 µM) and the IC50 [20] was 2.05 µg/mL (≈ 2.69 µM). It also gave an IC90 [20] of 6.19 µg/mL (≈ 8.11 µM), an IC50 (MG63 (osteosarcoma)) of 0.68 µg/mL (≈ 0.891 µM) and an IC90 (MG63 (osteosarcoma)) of 0.9 µg/mL (≈ 1.18 µM).
